This passage reports IC50 results from patent US11325938B2, “CD73 inhibitors” (ORIC Pharmaceuticals, Inc., priority 2018, dated 2022).

The test concerns the target CD73 (Homo sapiens (Human), UniProt P21589). Kind of test: Biochemical assay: inhibition of CD73 activity (AMP hydrolysis, Malachite Green readout). As to conditions: CD73 0.3208 nM, AMP 15 μM, 25 mM Tris-HCl pH 7.4, RT, absorbance 620 nm. The procedure:
Example A1: Biochemical Assay
Assay Reaction Conditions
• Assay Volume: 70 μl • Reaction Volume: 50 μl • CD73: 0.3208 nM • AMP: 15 μM • Assay Buffer: 25 mM Tris-HCL, pH 7.4, 0.01% Brij-35, 0.01% BSA, 5 mM MgCl2 Assay Procedure:
Made dose titration of testing compounds in assay buffer, 10 points ½ log titrations in duplicates starting at 100 μM.
Added 25 μl of CD73 to each well for a final concentration of 320 pM.
Incubated at RT for 15 min.
Added 25 μl of AMP to each well for a final concentration of 15 μM.
Incubated at RT for 10 min.
Added 10 μl of Malachite Green Reagent A, incubate at RT for 10 min.
Added 10 of Malachite Green Reagent B, incubate at RT for 45 min.
Read the Absorbance on Envision plate reader using excitation filter: Cy5 […].
The ability of the compounds disclosed herein to inhibit CD73 activity was quantified and the respective IC50 values were determined. Table 2 provides the biochemical IC50 values of compounds disclosed herein.

CD73, sequence (P21589 27-574): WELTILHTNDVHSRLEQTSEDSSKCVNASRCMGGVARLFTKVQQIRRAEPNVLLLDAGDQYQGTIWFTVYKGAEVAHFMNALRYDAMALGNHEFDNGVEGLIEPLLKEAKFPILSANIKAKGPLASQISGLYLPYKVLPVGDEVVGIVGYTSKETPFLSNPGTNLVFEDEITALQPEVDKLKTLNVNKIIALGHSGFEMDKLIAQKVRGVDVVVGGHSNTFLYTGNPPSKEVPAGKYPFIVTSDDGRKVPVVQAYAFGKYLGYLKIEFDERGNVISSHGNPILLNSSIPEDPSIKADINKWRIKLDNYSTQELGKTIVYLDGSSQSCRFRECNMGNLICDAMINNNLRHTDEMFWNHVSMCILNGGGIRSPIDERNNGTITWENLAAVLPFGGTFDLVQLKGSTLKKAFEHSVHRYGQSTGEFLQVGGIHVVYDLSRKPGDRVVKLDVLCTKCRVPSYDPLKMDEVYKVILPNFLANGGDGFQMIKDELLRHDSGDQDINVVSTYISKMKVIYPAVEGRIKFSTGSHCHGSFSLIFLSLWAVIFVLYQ

As a reminder, the IC50 is the midpoint of a concentration-inhibition curve. `CC(CO)(OC[C@H]1O[C@@H](n2ncc3c(NC4CCCC4)nc(OCCO)nc32)[C@H](O)[C@@H]1O)P(=O)(O)O` (stereo partly drawn) [Example 68, (2-(((2R,3S,4R,5R)-5-(4-(cyclopentylamino)-6-(2-hydroxyethoxy)-1H-pyrazolo[3,4-d]pyrimidin-1-yl)-3,4-dihydroxytetrahydrofuran-2-yl)methoxy)-1-hydroxypropan-2-yl)phosphonic acid] returned an IC50 of no more than 100 nM.

The compound `CC(COCC1CC1)(OC[C@H]1O[C@@H](n2ncc3c(NC4CCCC4)nc(Cl)nc32)[C@H](O)[C@@H]1O)P(=O)(O)O` (stereo partly drawn) [Example 153, (2-(((2R,3S,4R,5R)-5-(6-chloro-4-(cyclopentylamino)-1H-pyrazolo[3,4-d]pyrimidin-1-yl)-3,4-dihydroxytetrahydrofuran-2-yl)methoxy)-1-(cyclopropylmethoxy)propan-2-yl)phosphonic acid] showed an IC50 of no more than 100 nM.

The compound `COCCOCC(COCCO)(OC[C@H]1O[C@@H](n2ncc3c(NC4CCCC4)nc(Cl)nc32)[C@H](O)[C@@H]1O)P(=O)(O)O` (mixture of isomers) [Example 177, rac-(2-(((2R,3S,4R,5R)-5-(6-chloro-4-(cyclopentylamino)-1H-pyrazolo[3,4-d]pyrimidin-1-yl)-3,4-dihydroxytetrahydrofuran-2-yl)methoxy)-1-(2-hydroxyethoxy)-3-(2-methoxyethoxy)propan-2-yl)phosphonic acid] gave an IC50 of no more than 100 nM.

In turn, `C[C@@](CO)(OC[C@H]1O[C@@H](n2ncc3c(NC4CCCC4)nc(Cl)nc32)[C@H](O)[C@@H]1O)P(=O)(O)O` [Example 63, ((R)-2-(((2R,3S,4R,5R)-5-(6-chloro-4-(cyclopentylamino)-1H-pyrazolo[3,4-d]pyrimidin-1-yl)-3,4-dihydroxytetrahydrofuran-2-yl)methoxy)-1-hydroxypropan-2-yl)phosphonic acid] showed an IC50 of no more than 100 nM.

`CC1(Nc2nc(Cl)nc3c2cnn3[C@@H]2O[C@H](CO[C@](C)(CO)P(=O)(O)O)[C@@H](O)[C@H]2O)CCCC1` [Example 106, ((S)-2-(((2R,3S,4R,5R)-5-(6-chloro-4-((1-methylcyclopentyl)amino)-1H-pyrazolo[3,4-d]pyrimidin-1-yl)-3,4-dihydroxytetrahydrofuran-2-yl)methoxy)-1-hydroxypropan-2-yl)phosphonic acid] yielded an IC50 of no more than 100 nM.

In the case of `CS(=O)(=O)CC(CO)(OC[C@H]1O[C@@H](n2ncc3c(NC4CCCC4)nc(Cl)nc32)[C@H](O)[C@@H]1O)P(=O)(O)O` (stereo partly drawn) [Example 107, (2-(((2R,3S,4R,5R)-5-(6-chloro-4-(cyclopentylamino)-1H-pyrazolo[3,4-d]pyrimidin-1-yl)-3,4-dihydroxytetrahydrofuran-2-yl)methoxy)-1-hydroxy-3-(methylsulfonyl)propan-2-yl)phosphonic acid], the IC50 is no more than 100 nM.

For the compound `C[C@](CO)(OC[C@H]1O[C@@H](n2ncc3c(N[C@@H]4CC[C@H]5CCC[C@H]54)nc(Cl)nc32)[C@H](O)[C@@H]1O)P(=O)(O)O` (racemic) [Example 173, rac-((R)-2-(((2S,3R,4S,5S)-5-(6-chloro-4-(((1S,3aS,6aS)-octahydropentalen-1-yl)amino)-1H-pyrazolo[3,4-d]pyrimidin-1-yl)-3,4-dihydroxytetrahydrofuran-2-yl)methoxy)-1-hydroxypropan-2-yl)phosphonic acid], the IC50 is no more than 100 nM.

`O=C(O)c1ccc(C[C@](CO)(OC[C@H]2O[C@@H](n3ncc4c(NC5CCCC5)nc(Cl)nc43)[C@H](O)[C@@H]2O)P(=O)(O)O)cc1` (racemic) [Example 188, rac-4-((R)-2-(((2S,3R,4S,5S)-5-(6-chloro-4-(cyclopentylamino)-1H-pyrazolo[3,4-d]pyrimidin-1-yl)-3,4-dihydroxytetrahydrofuran-2-yl)methoxy)-3-hydroxy-2-phosphonopropyl)benzoic acid] returned an IC50 of 100 to 1000 nM.

For `O=P(O)(O)[C@@](CO)(Cc1nn[nH]n1)OC[C@H]1O[C@@H](n2ncc3c(NC4CCCC4)nc(CO)nc32)[C@H](O)[C@@H]1O` (racemic) [Example 218, rac-((R)-2-(((2R,3S,4R,5R)-5-(4-(cyclopentylamino)-6-(hydroxymethyl)-1H-pyrazolo[3,4-d]pyrimidin-1-yl)-3,4-dihydroxytetrahydrofuran-2-yl)methoxy)-1-hydroxy-3-(2H-tetrazol-5-yl)propan-2-yl)phosphonic acid], the IC50 is no more than 100 nM.

The compound `O=P(O)(O)C(CO)(Cc1cc(O)no1)OC[C@H]1O[C@@H](n2ncc3c(NC4CCCC4)nc(Cl)nc32)[C@H](O)[C@@H]1O` (mixture of isomers) [Example 195, rac-(2-(((2R,3S,4R,5R)-5-(6-chloro-4-(cyclopentylamino)-1H-pyrazolo[3,4-d]pyrimidin-1-yl)-3,4-dihydroxytetrahydrofuran-2-yl)methoxy)-1-hydroxy-3-(3-hydroxyisoxazol-5-yl)propan-2-yl)phosphonic acid] had an IC50 of no more than 100 nM.

Regarding `O=P(O)(O)C(CO)OC[C@H]1O[C@@H](n2ncc3c(NC4CCCC4)nc(Cl)nc32)[C@H](O)[C@@H]1O` (stereo partly drawn) [Example 13, (1-(((2R,3S,4R,5R)-5-(6-chloro-4-(cyclopentylamino)-1H-pyrazolo[3,4-d]pyrimidin-1-yl)-3,4-dihydroxytetrahydrofuran-2-yl)methxoy)-2-hydroxyethyl)phosphonic acid], the IC50 was no more than 100 nM.

Turning to `O=P(O)(O)C(CO)(COCC(F)(F)F)OC[C@H]1O[C@@H](n2ncc3c(NC4CCCC4)nc(Cl)nc32)[C@H](O)[C@@H]1O` (stereo partly drawn) [Example 95, (2-(((2R,3S,4R,5R)-5-(6-chloro-4-(cyclopentylamino)-1H-pyrazolo[3,4-d]pyrimidin-1-yl)-3,4-dihydroxytetrahydrofuran-2-yl)methoxy)-1-hydroxy-3-(2,2,2-trifluoroethoxy)propan-2-yl)phosphonic acid], the IC50 is no more than 100 nM.

`C[C@](CO)(OC[C@H]1O[C@@H](n2ncc3c(NC4CCCC4)nc(C#CCO)nc32)[C@H](O)[C@@H]1O)P(=O)(O)O` (racemic) [Example 199, rac-((R)-2-(((2S,3R,4S,5S)-5-(4-(cyclopentylamino)-6-(3-hydroxyprop-1-yn-1 yl)-1H-pyrazolo[3,4-d]pyrimidin-1-yl)-3,4-dihydroxytetrahydrofuran-2-yl)methoxy)-1-hydroxypropan-2-yl)phosphonic acid]: the IC50 is no more than 100 nM.

In turn, `C[C@@H](OC[C@H]1O[C@@H](n2ncc3c(NC4CCCC4)nc(Cl)nc32)[C@H](O)[C@@H]1O)P(=O)(O)O` [Example 32, ((S)-1-(((2R,3S,4R,5R)-5-(6-chloro-4-(cyclopentylamino)-1H-pyrazolo[3,4-d]pyrimidin-1-yl)-3,4-dihydroxytetrahydrofuran-2-yl)methoxy)ehtyl)phosphonic acid] gave an IC50 of no more than 100 nM.

In turn, `C[C@@](CO)(OC[C@H]1O[C@@H](n2ncc3c(NC4CCCC4)nc(OCCO)nc32)[C@H](O)[C@@H]1O)P(=O)(O)O` [Example 134, ((R)-2-(((2R,3S,4R,5R)-5-(4-(cyclopentylamino)-6-(2-hydroxyethoxy)-1H-pyrazolo[3,4-d]pyrimidin-1-yl)-3,4-dihydroxytetrahydrofuran-2-yl)methoxy)-1-hydroxypropan-2-yl)phosphonic acid] came in with an IC50 of no more than 100 nM.

`C[C@](CO)(OC[C@H]1O[C@@H](n2ncc3c(NC4CCCC4)cc(Cl)nc32)[C@H](O)[C@@H]1O)P(=O)(O)O` (racemic) [Example 193, rac-((R)-2-(((2S,3R,4S,5S)-5-(6-chloro-4-(cyclopentylamino)-1H-pyrazolo[3,4-b]pyridin-1-yl)-3,4-dihydroxytetrahydrofuran-2-yl)methoxy)-1-hydroxypropan-2-yl)phosphonic acid] yielded an IC50 of no more than 100 nM.

`C[C@@](Cc1nn[nH]n1)(OC[C@H]1O[C@@H](n2ncc3c(NC4CCCC4)nc(Cl)nc32)[C@H](O)[C@@H]1O)P(=O)(O)O` [Example 119, ((R)-2-(((2R,3S,4R,5R)-5-(6-chloro-4-(cyclopentylamino)-1H-pyrazolo[3,4-d]pyrimidin-1-yl)-3,4-dihydroxytetrahydrofuran-2-yl)methoxy)-1-(2H-tetrazol-5-yl)propan-2-yl)phosphonic acid]: the IC50 is no more than 100 nM.

As for `COCC(C)(OC[C@H]1O[C@@H](n2nnc3c(NC4CCCC4)nc(Cl)nc32)[C@H](O)[C@@H]1O)P(=O)(O)O` (stereo partly drawn) [Example 82, (2-(((2R,3S,4R,5R)-5-(5-chloro-7-(cyclopentylamino)-3H-[1,2,3]triazolo[4,5-d]pyrimidin-3-yl)-3,4-dihydroxytetrahydrofuran-2-yl)methoxy)-1-methoxypropan-2-yl)phosphonic acid], the IC50 was no more than 100 nM.

The compound `COCC(COC)(OC[C@H]1O[C@@H](n2ncc3c(NCC4CC4)nc(Cl)nc32)[C@H](O)[C@@H]1O)P(=O)(O)O` [Example 125, (2-(((2R,3S,4R,5R)-5-(6-chloro-4-((cyclopropylmethyl)amino)-1H-pyrazolo[3,4-d]pyrimidin-1-yl)-3,4-dihydroxytetrahydrofuran-2-yl)methoxy)-1,3-dimethoxypropan-2-yl)phosphonic acid] returned an IC50 of no more than 100 nM.

`O=P(O)(O)C(OC[C@H]1O[C@@H](n2ncc3c(NC4CCCC4)nc(Cl)nc32)[C@H](O)[C@@H]1O)C(F)(F)F` (stereo partly drawn) [Example 80, (1-(((2R,3S,4R,5R)-5-(6-chloro-4-(cyclopentylamino)-1H-pyrazolo[3,4-d]pyrimidin-1-yl)-3,4-dihydroxytetrahydrofuran-2-yl)methoxy)-2,2,2-trifluoroethyl)phosphonic acid] registered a 50% inhibitory concentration (IC50) of 100 to 1000 nM.
